{"source": "PubChem BioAssay AID2202554", "about": "(NIEHS Division of Translational Toxicology (DTT))", "note": "Inconclusive results are not listed. Active and inactive are the calls of the source. How the calls were made is not given here."}
{"system": "S. typhimurium/E. coli reverse mutation, colony counts", "assay": "Bacterial reverse mutation test (aka Ames test) summary data", "procedure,_shortened": "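Revertant colony counts on plates, compared with untreated controls, after about two days of growth. Exposure with or without liver S9 (rat/hamster/mouse), dose range per strain, 20-min 37° C preincubation or direct plate incorporation. Strains: his⁻ Salmonella, trp⁻ E. coli WP2 uvrA pKM101.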"}
{"smiles": "Nc1ccc(-c2ccc(N)c(Cl)c2)cc1Cl", "outcome": "active; positive"}
{"smiles": "COc1cc([N+](=O)[O-])ccc1N", "outcome": "active; positive"}
{"smiles": "NC1(C(=O)O)CCCC1", "outcome": "inactive; negative"}
{"smiles": "CC[C@]12CCCN3CCc4c(n(c5ccccc45)[C@@](O)(C(=O)OC)C1)[C@@H]32", "outcome": "inactive; negative"}
{"smiles": "CN(C)c1ccc(N=O)cc1", "outcome": "active; positive"}
{"smiles": "Cc1ccc(CO)cc1", "outcome": "inactive; negative"}
{"smiles": "Cc1cc(-c2ccc(N=Nc3cc(S(=O)(=O)O)c4ccccc4c3N)c(C)c2)ccc1N=Nc1cc(S(=O)(=O)O)c2ccccc2c1N", "outcome": "inactive; negative"}
{"smiles": "c1cc(OCC2CO2)cc(OCC2CO2)c1", "note": "(configuration not stated)", "outcome": "active; positive"}
{"smiles": "C=CC(=O)CC", "outcome": "active; positive"}
{"smiles": "c1ccc(O[Si](Oc2ccccc2)(Oc2ccccc2)Oc2ccccc2)cc1", "outcome": "inactive; negative"}
{"smiles": "CCCCN", "outcome": "inactive; negative"}
{"smiles": "Cc1cscn1", "outcome": "inactive; negative"}
{"smiles": "CCC(C)Nc1ccc(NC(C)CC)cc1", "note": "(configuration not stated)", "outcome": "inactive; negative"}
{"smiles": "CC(=O)c1ccc(Cl)c(Cl)c1Cl", "outcome": "active; positive"}
{"smiles": "ClC1=C(Cl)[C@]2(Cl)[C@@H]3[C@H]4C[C@H]([C@@H]5O[C@H]45)[C@@H]3[C@@]1(Cl)C2(Cl)Cl", "outcome": "inactive; negative"}
{"smiles": "COc1cc(S(=O)(=O)O)c(C)cc1N=Nc1c(O)ccc2cc(S(=O)(=O)O)ccc12", "outcome": "inactive; negative"}
{"smiles": "CCOP(=S)(OCC)Oc1ccc([N+](=O)[O-])cc1", "outcome": "active; weakly positive"}
{"smiles": "ClC(Cl)C(Cl)Cl", "outcome": "inactive; negative"}
{"smiles": "OCCCCO", "outcome": "inactive; negative"}
{"smiles": "O=C(O)CC[N+](=O)[O-]", "outcome": "active; positive"}
{"smiles": "COC(F)(F)C(Cl)Cl", "outcome": "inactive; negative"}
{"smiles": "O=C(O)c1ccccc1", "outcome": "inactive; negative"}
{"smiles": "CCCCCCCCCCCCCCCCN", "outcome": "inactive; negative"}
{"smiles": "c1ccncc1", "outcome": "inactive; negative"}
{"smiles": "O=[N+]([O-])c1ccc(Nc2ccc(O)cc2)c([N+](=O)[O-])c1", "outcome": "active; positive"}
{"smiles": "O=c1c(O)c(-c2ccc(O)c(O)c2)oc2cc(O)cc(O)c12", "outcome": "active; positive"}
{"smiles": "O=S(=O)([O-])[O-].[O]=[V+2]", "outcome": "inactive; negative"}
{"smiles": "O=C(O)c1cc(=O)[nH]c(=O)[nH]1", "outcome": "inactive; negative"}
{"smiles": "CCCCOCC1CO1", "note": "(configuration not stated)", "outcome": "active; positive"}
{"smiles": "OC1CCCCC1", "outcome": "inactive; negative"}
{"smiles": "Oc1ccc2ccccc2c1N=Nc1ccccc1", "outcome": "active; positive"}
{"smiles": "NCP(=O)(O)O", "outcome": "inactive; negative"}
{"smiles": "O.O.O.O.O.O.O=S(=O)([O-])[O-].[Ni+2]", "outcome": "inactive; negative"}
{"smiles": "CCN(CC)CC", "outcome": "inactive; negative"}
{"smiles": "CC12CCC(CC1)C(C)(C)O2", "outcome": "inactive; negative"}
{"smiles": "ClCc1ccccn1", "outcome": "active; positive"}
{"smiles": "ClC(Cl)c1ccccc1", "outcome": "active; positive"}
{"smiles": "NC(=O)N=NC(N)=O", "outcome": "active; positive"}
{"smiles": "CC(N)CN", "note": "(configuration not stated)", "outcome": "inactive; negative"}
{"smiles": "O=C/C=C/O", "outcome": "inactive; negative"}
{"smiles": "ClC=CCl", "outcome": "inactive; negative"}
{"smiles": "CC(=O)OCc1ccc2c(c1)OCO2", "outcome": "inactive; negative"}
{"smiles": "CN(C)c1nc(=O)n(C2CCCCC2)c(=O)n1C", "outcome": "inactive; negative"}
{"smiles": "Cc1cc(-c2ccc(N=Nc3c(S(=O)(=O)O)cc4cc(S(=O)(=O)O)cc(O)c4c3O)c(C)c2)ccc1N=Nc1c(S(=O)(=O)O)cc2cc(S(=O)(=O)O)cc(O)c2c1O", "outcome": "inactive; negative"}
{"smiles": "Cc1c(N=C=O)cccc1N=C=O", "outcome": "active; positive"}
{"smiles": "O=C(O)c1ccc(S(=O)(=O)N(Cl)Cl)cc1", "outcome": "active; positive"}
{"smiles": "Cc1cccc(O)c1C", "outcome": "inactive; negative"}
{"smiles": "CC(C)(C)OOC(C)(C)CCC(C)(C)OOC(C)(C)C", "outcome": "inactive; negative"}
{"smiles": "Nc1cc(Cl)ccc1O", "outcome": "active; weakly positive"}
{"smiles": "CCCCCCC(=O)OCC", "outcome": "inactive; negative"}
{"smiles": "Oc1ccc(Cl)cc1Cc1ccccc1", "outcome": "inactive; negative"}
{"smiles": "Clc1c(Cl)c(Cl)c2c(Cl)c(Cl)c(Cl)c(Cl)c2c1Cl", "outcome": "inactive; negative"}
{"smiles": "C[C@]12C=CC(=O)C=C1CC[C@@H]1[C@@H]2C(=O)C[C@@]2(C)[C@H]1CC[C@]2(O)C(=O)CO", "outcome": "active; positive"}
{"smiles": "CCCCCCCCS(=O)C(C)Cc1ccc2c(c1)OCO2", "note": "(configuration not stated)", "outcome": "inactive; negative"}
{"smiles": "CC(=O)c1ccc(S(=O)(=O)NC(=O)NC2CCCCC2)cc1", "outcome": "inactive; negative"}
{"smiles": "N#CCCCCC#N", "outcome": "inactive; negative"}
{"smiles": "CN(C)CCC(c1ccccc1)c1ccccn1", "note": "(configuration not stated)", "outcome": "inactive; negative"}
{"smiles": "Cc1cc(-c2ccc(N)c(C)c2)ccc1N", "outcome": "active; positive"}
{"smiles": "CCOC=O", "outcome": "inactive; negative"}
{"smiles": "CC1=C(/C=C/C(C)=C/C=C/C(C)=C\\C=O)C(C)(C)CCC1", "outcome": "active; weakly positive"}
{"smiles": "CCCCOCCCC", "outcome": "inactive; negative"}
{"smiles": "CCCCCCOCC1CO1", "note": "(configuration not stated)", "outcome": "active; positive"}
{"smiles": "CCN(CC)N=O", "outcome": "active; positive"}
{"smiles": "CC(=O)C=CC1=C(C)CCCC1(C)C", "outcome": "inactive; negative"}
{"smiles": "S=C1NCCN1", "outcome": "active; weakly positive"}
{"smiles": "N#CCCO", "outcome": "inactive; negative"}
{"smiles": "Cc1cc(O)c2c(c1)C(=O)c1cccc(O)c1C2=O", "outcome": "active; weakly positive"}
{"smiles": "OCCNCCO", "outcome": "inactive; negative"}
{"smiles": "Nc1ncnc2c1ncn2[C@H]1CC[C@@H](CO)O1", "outcome": "active; positive"}
{"smiles": "COC(=O)Nc1cccc(OC(=O)Nc2cccc(C)c2)c1", "outcome": "active; positive"}
{"smiles": "Cc1cc(C)cc([N+](=O)[O-])c1", "outcome": "active; positive"}
{"smiles": "O=c1c2ccccc2c(=O)c2c1ccc1[nH]c3c(ccc4c(=O)c5ccccc5c(=O)c43)[nH]c12", "outcome": "inactive; negative"}
{"smiles": "Cc1ccccc1C=O", "outcome": "inactive; negative"}
{"smiles": "CCCCCCCCCCC1CO1", "note": "(configuration not stated)", "outcome": "inactive; negative"}
{"smiles": "CC(=O)Nc1ccc(N)cc1", "outcome": "active; positive"}
{"smiles": "c1ccc2scnc2c1", "outcome": "inactive; negative"}
{"smiles": "COc1cc(-c2ccc(N=Nc3c(S(=O)(=O)O)cc4cc(S(=O)(=O)O)cc(O)c4c3O)c(OC)c2)ccc1N=Nc1c(S(=O)(=O)O)cc2cc(S(=O)(=O)O)cc(O)c2c1O", "outcome": "inactive; negative"}
{"smiles": "CC(=O)C(C)O", "note": "(configuration not stated)", "outcome": "inactive; negative"}
{"smiles": "Nc1ccc2ccccc2c1", "outcome": "active; positive"}
{"smiles": "OCC1CO1", "note": "(configuration not stated)", "outcome": "active; positive"}
{"smiles": "C[C@@H]1C[C@@H]([C@H](O)CC2CC(=O)NC(=O)C2)C(=O)[C@@H](C)C1", "outcome": "inactive; negative"}
{"smiles": "C=CCc1ccc(O)c(OC)c1", "outcome": "inactive; negative"}
{"smiles": "CCc1ccccc1O", "outcome": "inactive; negative"}
{"smiles": "Nc1nccs1", "outcome": "active; positive"}
{"smiles": "O=CC(Cl)(Cl)Cl", "outcome": "active; weakly positive"}
{"smiles": "C=CC(C)=O", "outcome": "active; positive"}
{"smiles": "c1ccc2c(c1)ccc1ccccc12", "outcome": "active; weakly positive"}
{"smiles": "Oc1c(Br)cc(Br)cc1Br", "outcome": "inactive; negative"}
{"smiles": "O=C/C=C/c1ccccc1", "outcome": "active; weakly positive"}
{"smiles": "C=CCN(CC=C)CC=C", "outcome": "inactive; negative"}
{"smiles": "Cc1cccc2c1ccc1ccccc12", "outcome": "active; positive"}
{"smiles": "OC(O)C(Cl)(Cl)Cl", "outcome": "active; positive"}
{"smiles": "Brc1c(Br)c(Br)c(Br)c(Br)c1Br", "outcome": "inactive; negative"}
{"smiles": "C=C(C)[C@H]1CC=C(C)C(=O)C1", "outcome": "inactive; negative"}
{"smiles": "O=C1c2cccc(O)c2C(=O)c2c(O)cccc21", "outcome": "active; weakly positive"}
{"smiles": "O=C(O)C(=O)O", "outcome": "inactive; negative"}
{"smiles": "NC(=O)c1ccccc1O", "outcome": "inactive; negative"}
{"smiles": "C[C@@H]1[C@H](O)[C@@H](C)/C=C/C=C/C=C/C=C/C=C/C=C/C=C/[C@H](O[C@@H]2O[C@H](C)[C@@H](O)[C@H](N)[C@@H]2O)C[C@@H]2O[C@](O)(C[C@@H](O)C[C@@H](O)[C@H](O)CC[C@@H](O)C[C@@H](O)CC(=O)O[C@H]1C)C[C@H](O)[C@H]2C(=O)O", "outcome": "inactive; negative"}
{"smiles": "O=[N+]([O-])c1ccc(Cl)c(Cl)c1", "outcome": "active; positive"}
{"smiles": "OCC(CBr)(CBr)CBr", "outcome": "active; positive"}
{"smiles": "Nc1c(Cl)c(Cl)nc(C(=O)O)c1Cl", "outcome": "inactive; negative"}
{"smiles": "COS(C)(=O)=O", "outcome": "active; positive"}
{"smiles": "CCCCCCCCCCCCCCC1CO1", "note": "(configuration not stated)", "outcome": "inactive; negative"}
{"smiles": "CNC(=O)c1ccccc1", "outcome": "inactive; negative"}
{"smiles": "C=CC(=O)OCCN(C)C", "outcome": "inactive; negative"}
{"smiles": "Nc1cc(Cl)c([N+](=O)[O-])cc1O", "outcome": "active; positive"}
{"smiles": "O=S(=O)(O)c1ccccc1", "outcome": "inactive; negative"}
{"smiles": "O=c1ccc2ccccc2o1", "outcome": "active; positive"}
{"smiles": "NCCS(=O)(=O)O", "outcome": "inactive; negative"}
{"smiles": "CCCCC(CC)COC(=O)c1ccc(N(C)C)cc1", "note": "(configuration not stated)", "outcome": "inactive; negative"}
{"smiles": "C[N+](C)(C)CCO", "outcome": "inactive; negative"}
{"smiles": "O=Nc1ccc(Nc2ccccc2)cc1", "outcome": "active; weakly positive"}
{"smiles": "ClCCCl", "outcome": "active; positive"}
{"smiles": "CCCCCCC(=O)O", "outcome": "inactive; negative"}
{"smiles": "O=c1[nH][nH]c(=O)c2cc([N+](=O)[O-])ccc12", "outcome": "active; positive"}
{"smiles": "CC(CCC(=O)O)(c1ccc(O)cc1)c1ccc(O)cc1", "outcome": "inactive; negative"}
{"smiles": "CN[C@@H]1[C@H](O[C@H]2[C@H](O[C@H]3[C@H](O)[C@@H](O)[C@H](NC(=N)N)[C@@H](O)[C@@H]3N=C(N)N)O[C@@H](C)[C@]2(O)C=O)O[C@@H](CO)[C@H](O)[C@H]1O", "outcome": "active; weakly positive"}
{"smiles": "Cn1cnc([N+](=O)[O-])c1Sc1ncnc2nc[nH]c12", "outcome": "active; positive"}
{"smiles": "O=C(O)c1cc(O)c2c(c1)[C@@H]([C@H]1c3cc(C(=O)O)cc(O)c3C(=O)c3c(O[C@@H]4O[C@H](CO)[C@@H](O)[C@H](O)[C@H]4O)cccc31)c1cccc(O[C@@H]3O[C@H](CO)[C@@H](O)[C@H](O)[C@H]3O)c1C2=O", "outcome": "inactive; negative"}
{"smiles": "CCCCc1ccc(N=Cc2ccc(OC)cc2)cc1", "outcome": "active; positive"}
{"smiles": "CCC(=O)O", "outcome": "inactive; negative"}
{"smiles": "Oc1c(Cl)ccc(Cl)c1Cl", "outcome": "inactive; negative"}
